In publication PMC9065678, “BI 1015550 is a PDE4B Inhibitor and a Clinical Drug Candidate for the Oral Treatment of Idiopathic Pulmonary Fibrosis” (Frontiers in Pharmacology, 2022):
Marks after values point to notes of the source that are not given here.

Experiments:
[1] = Off-target screening, Cerep high-throughput profile and non-kinase enzyme profile
[2] = system: bleomycin-challenged mice; experiment: Therapeutic bleomycin mouse model of lung fibrosis; format: in vivo
Protocol: Adult, test-naïve, male C57BL6/6J mice, aged 10–12 weeks from Charles River were used (weight 25–27 g). The model was performed essentially as described by [Ackermann et al. (2017)]. Briefly, bleomycin 1 mg/kg (Calbiochem, Darmstadt, Germany) was administered intratracheally in an application volume of 2 mL/kg body weight. Animals were weighed daily. […] BI 1015550 (at final doses of 2.5 and 12.5 mg/kg) was applied by oral gavage using a dose volume of 10 mL/kg twice daily (b.i.d.) from day 8 until day 13. On day 12, animals were anesthetized using 3–4% isoflurane, and lung density was assessed by micro-computed tomography (µCT) analysis with a Quantum FX µCT system (Perkin Elmer) with cardiac gating (without respiratory gating). Images were analyzed using MicroView 2.0 software (GE Healthcare). The Hounsfield unit (HU) corresponding to the peak of the HU-histogram for the segmented pixels was used as a measure of fibrosis. After µCT analysis, animals were allowed to awaken from anesthesia. On day 14, lung function [pressure-volume loops, FVC, and static lung compliance (Cstat)] was measured with a FlexiVent system (SCIREQ, Montreal, PQ, Canada). After the lung function measurement, animals were sacrificed by an overdose of Narcorene and lungs were lavaged with two-times 0.8 mL of PBS. BALF was used to determine differential cell counts (Sysmex XT-1800iVet) and the number of monocytes. Left lung lobes were fixed with 4% paraformaldehyde and inflated under 20 cm water pressure for 20 min. Samples were embedded in paraffin, sectioned (3 μm thickness), and stained for hematoxylin and eosin (HE) and Masson’s trichrome to assess general morphology and fibrotic change following standard histopathology operating protocols. Images were taken with an AxioCam MRm microscope camera using AxioVision software (Carl Zeiss Microscopy, LLC, White Plains, NY, United States). Lung sections stained with Masson’s trichrome were assessed for severity of pulmonary fibrosis using the Ashcroft score. The protocol used is therapeutic, i.e. treatment commenced at a time where lung fibrosis should have developed, in line with the recommendations of the American Thoracic Society panel on IPF models ([Jenkins et al., 2017]).

[3] = system: LPS-induced neutrophil influx into the BALF; experiment: LPS-induced neutrophil influx into the BALF of Suncus murinus; format: in vivo
Excerpt: Compared with other animal species used to study emesis induction by PDE4 inhibitors, like ferrets, dogs, minipigs, or monkeys, Suncus murinus allows the testing of a sufficient number of animals to provide a high statistical power. […] Male Suncus murinus (weight 50–55 g) from Boehringer Ingelheim (Biberach an der Riss, Germany) or male Wistar rats (200–250 g, Charles River), eight animals per group, were used. […] For this purpose, animals in the positive control and treatment groups were put into a circular Plexiglas chamber with 16 pie-like compartments for one animal each, and were consecutively exposed to nebulized LPS for 30 min. The LPS solution used for nebulization contained 1 mg/mL LPS in phosphate-buffered saline (PBS). Nebulization was performed with the commercially available PARI Master® nebulizer with a PARI Master® LL adapter (Pari GmbH, Starnberg, Germany). 4 h after LPS exposure, the animals were anesthetized and euthanized by cervical dislocation. After sacrifice, the trachea was cannulated and bronchoalveolar lavage was performed by instilling and re-aspirating two-times 1 mL (Suncus murinus) or 5 mL (rat) lavage buffer (PBS +2% bovine serum albumin). BALF volumes were recorded manually. Determination of neutrophil numbers in BALF was performed using a blood hemacytometer (Sysmex XT-1800i, Kobe, Japan).

PDE2A = target: T1, PDE2A (Homo sapiens, UniProt O00408); experiment: PDE2A inhibition screen at Eurofins Cerep; format: biochemical; conditions: screened at Eurofins Cerep
T1 construct: Eurofins Cerep
T1 sequence (O00408 whole entry): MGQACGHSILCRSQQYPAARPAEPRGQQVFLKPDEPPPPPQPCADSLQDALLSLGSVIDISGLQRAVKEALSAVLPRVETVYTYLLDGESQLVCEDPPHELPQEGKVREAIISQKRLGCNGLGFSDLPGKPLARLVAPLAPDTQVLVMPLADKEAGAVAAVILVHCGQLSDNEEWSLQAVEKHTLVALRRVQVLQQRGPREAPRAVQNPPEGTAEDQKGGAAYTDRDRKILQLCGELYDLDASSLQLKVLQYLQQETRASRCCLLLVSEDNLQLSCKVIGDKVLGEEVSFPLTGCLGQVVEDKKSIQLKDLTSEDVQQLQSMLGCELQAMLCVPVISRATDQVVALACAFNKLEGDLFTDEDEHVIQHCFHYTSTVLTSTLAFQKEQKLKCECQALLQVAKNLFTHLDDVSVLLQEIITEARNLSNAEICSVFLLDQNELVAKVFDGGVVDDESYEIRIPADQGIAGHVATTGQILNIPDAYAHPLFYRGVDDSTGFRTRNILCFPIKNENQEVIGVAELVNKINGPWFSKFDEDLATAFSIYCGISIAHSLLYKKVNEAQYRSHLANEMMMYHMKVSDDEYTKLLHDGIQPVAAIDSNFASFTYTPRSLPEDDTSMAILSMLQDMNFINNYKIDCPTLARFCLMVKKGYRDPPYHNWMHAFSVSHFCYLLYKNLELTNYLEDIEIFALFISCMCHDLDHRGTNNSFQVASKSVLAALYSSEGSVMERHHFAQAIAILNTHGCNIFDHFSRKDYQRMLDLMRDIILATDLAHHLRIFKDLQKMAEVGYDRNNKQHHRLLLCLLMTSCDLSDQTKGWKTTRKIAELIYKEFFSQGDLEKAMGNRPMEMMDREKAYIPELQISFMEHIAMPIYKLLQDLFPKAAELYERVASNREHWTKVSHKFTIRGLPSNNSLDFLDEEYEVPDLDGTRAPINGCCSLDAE

PDE5 = target: T2, PDE5 (Homo sapiens, UniProt O76074); experiment: PDE5 inhibition screen at Eurofins Cerep; format: biochemical; conditions: screened at Eurofins Cerep
T2 construct: Eurofins Cerep

PDE4D = target: T3, PDE4D (Homo sapiens, UniProt Q08499); experiment: Recombinant PDE activity, scintillation proximity assay: PDE4D; format: biochemical; conditions: human recombinant active site fragment, substrate [3H]cAMP, means from n independent experiments; read-out: IC50 PDE4D2
T3 construct: PDE4D NG_027957, AA 79–438; made in house; host or cells: SF9 insect cells (baculovirus, Bac-To-Bac, pFastbac)
T3 sequence (Q08499 381-740): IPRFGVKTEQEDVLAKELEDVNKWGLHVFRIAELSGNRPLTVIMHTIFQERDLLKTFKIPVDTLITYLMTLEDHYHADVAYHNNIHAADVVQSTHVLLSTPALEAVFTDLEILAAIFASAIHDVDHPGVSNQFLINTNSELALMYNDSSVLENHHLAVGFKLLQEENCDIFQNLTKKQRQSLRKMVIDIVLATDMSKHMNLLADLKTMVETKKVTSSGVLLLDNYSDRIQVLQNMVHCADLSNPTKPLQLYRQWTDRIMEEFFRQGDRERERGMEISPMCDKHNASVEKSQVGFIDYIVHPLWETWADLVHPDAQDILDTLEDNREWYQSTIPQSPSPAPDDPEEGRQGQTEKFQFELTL
Protocol: For the preparation of human recombinant PDEs of interest, the Bac-To-Bac baculoviral expression system from Invitrogen (Carlsbad, CA, United States) was used according to the instruction manual. […] The plasmids were transformed into DH10Bac bacteria, SF9 insect cells were transfected with the bacmid DNA, and the resulting baculoviruses were stored and used for further rounds of infections. For protein production, SF9 cells were infected until a cytopathic effect was visible (after about 72 h), the SF9 cells were harvested and broken up by 3 freeze/thaw cycles, and by shearing 10 times through a 0.1 mm cannula using a syringe. […] The Phosphodiesterase Scintillation Proximity Assays (TRKQ7090 for [^3H]cAMP, GE Healthcare Europe GmbH, Chalfont St Giles, United Kingdom, and TRKQ7100 for [^3H]cGMP, Perkin Elmer, Waltham, MA, United States) were performed essentially according to the instruction manual. […] Assay solutions containing recombinant baculoviral-expressed PDE (to give an activity of 5.000–20.000 cpm corresponding to 5–20% of total activity added), 50 mmol/L Tris/HCl pH 7.5, 8.3 mmol/L MgCl2, 1.7 mmol/L EGTA, and 10 µL radiolabeled substrate (0.05 µCi in H2O) were incubated for 1 h at 30°C (final volume 100 μL).

Plasma protein binding = format: in vitro ADME
[4] = mice, 2.5 mg/kg b.i.d. oral day 8 to day 13, measured day 14
[5] = mice, 12.5 mg/kg b.i.d. oral day 8 to day 13, measured day 14, 12.5 mg/kg

Off-target effects [1]: not shown any other off-target effects | Effect on weight gain ([2]; bleomycin mice, data not shown): no significant effect | Inhibition of human PDE2A (PDE2A): did not inhibit | Inhibition of human PDE5 (PDE5): did not inhibit | IC50 (PDE4D): 91 nM | Plasma protein binding (Plasma protein binding): 77%
SMILES: [O-][S+]1CCc2nc(N3CCC(c4ncc(Cl)cn4)CC3)nc(NC3(CO)CCC3)c21 (centres unmarked) [BI 1015550]
Effect on BALF protein and monocytes, airway compliance ([2]; bleomycin mice): no effects | Fibrosis < score, % improvement compared to bleomycin control ([2]; mice, 2.5 mg/kg b.i.d. oral day 8 to day 13): 2% | Cstat (mL/cm H2O), % improvement compared to bleomycin control [2, 4]: 21% | FVC (mL), % improvement compared to bleomycin control [2, 4]: 18% | Ratio tissue density, % improvement compared to bleomycin control ([2]; mice, 2.5 mg/kg b.i.d. oral day 8 to day 13, µCT): 4% | Fibrosis < score, % improvement compared to bleomycin control ([2]; mice, 12.5 mg/kg b.i.d. oral day 8 to day 13): 11% | Cstat (mL/cm H2O), % improvement compared to bleomycin control [2, 5]: 40* % | FVC (mL), % improvement compared to bleomycin control [2, 5]: 41% | Ratio tissue density, % improvement compared to bleomycin control ([2]; mice, 12.5 mg/kg b.i.d. oral day 8 to day 13, µCT): 39% | Improvement in PV loops ([2]; mice, higher dose (12.5 mg/kg b.i.d.), p < 0.05): 40% | Neutrophils in BALF, inhibition in % given as negative number ([3]; 0.1 mg/kg p.o.): −23% | Neutrophils in BALF, inhibition in % given as negative number ([3]; 0.3 mg/kg p.o.): −36% | Neutrophils in BALF, inhibition in % given as negative number ([3]; 1.0 mg/kg p.o.): −59% | ED50 LPS-induced BALF neutrophils ([3]; oral, 30 min before nebulized LPS): 0.6 mg/kg
